# Test results as given in patent publication US9107891B2, “Method for alleviating fear memory” (NIPPON SUISAN KAISHA, LTD., priority 2011, dated 2015).
# Legend:
# [1] = test system: pyramidal cells in the basolateral nucleus of amygdala; experiment: Patch-clamp in brain slices: depolarization-induced suppression of excitation (DSE); type: cell-based; design: unit of the concentration uncertain; settings: both groups of mice
# Source text: Patch-clamp recordings from pyramidal cells in the amygdala were taken in accordance with the methods described in Non-Patent Documents 21 and 22. […] The access resistance was frequently checked during recording and any cells that experienced substantial changes (±20%) in its value during recording were excluded from analysis.
# Whole-cell patch recordings were taken from pyramidal cells in the basolateral nucleus of amygdala. A bipolar glass electrode filled with an artificial cerebrospinal fluid was placed in the vicinity of the cell to be recorded and an electric stimulus was applied to the slice. First, the evoked excitatory postsynaptic current (eEPSC) was recorded from neurons in the amygdala. Subsequently, the cell being recorded was depolarized for 10 seconds and, immediately thereafter, eEPSC was recorded again. The ratio of the amplitude of eEPSC after depolarization (Ipost) to that of EPSC before depolarization (Ipre) (Ipost/Ipre) was calculated, and was used to assess the degree of DSE. In addition, to confirm the cannabinoid receptor dependency of DSE, recording was conducted with a brain slice immersed in an artificial cerebrospinal fluid containing rimonabant (5 mM). […] Thus, DSE was recorded in a brain slice immersed in an artificial cerebrospinal fluid containing capsaicin (10 mM) and the resulting changes were also studied.
# fear memory in mice = experiment: Fear conditioning test (freezing time); type: in vivo; settings: administered 30 minutes before fear conditioning, 5% krill oil diet 6 weeks
# Source text: The present inventors evaluated the actions of food ingredients on fear memory by the “fear conditioning experiment” (J Neurosci 27 158-166, 2007) which is extensively used as an evaluation system for fear memory in mice.
# A cubic experimental box made of acrylic resin having a bottom of 20 cm×20 cm and a height of 33 cm, with a conductive metallic grid being laid across the bottom, was used as a new environment for conditioning; each mouse was put into the experimental box and conditioned by applying electric shocks (0.8 mA, 2 s) from the bottom grid. Feeling an intense pain from each electric shock, a mouse memorizes that when placed in the new environment, it will suffer pain from electric shocks. The mice were then returned to the breeding cage where they had been kept before the conditioning.
# On the next day (the second day of the behavioral experiment), each mouse was put again into the experimental box where it was given electric shocks on the previous day; even in the absence of applied electric shocks, it would be scared to cringe, a characteristic freezing behavior from fear. The degree of fear memory was assessed by the degree of the freezing behavior, namely, the freezing time during a 3-minute exposure to the experimental box. […]
structure (smiles),measurement,setting,value
COc1cc(CNC(=O)CCCC/C=C/C(C)C)ccc1O [capsaicin],effect on DSE,[1]; brain slice in artificial cerebrospinal fluid containing capsaicin (10 (unit uncertain)),suppress DSE
C=CCN1CC[C@]23c4c5ccc(O)c4O[C@H]2C(=O)CC[C@@]3(O)[C@H]1C5 [naloxone],"freezing time, naloxone-administered krill oil group vs solvent-administered krill group","fear memory in mice; Test Example 12, FIG. 13",no difference in freezing time
Cc1c(C(=O)NN2CCCCC2)nn(-c2ccc(Cl)cc2Cl)c1-c1ccc(Cl)cc1 [rimonabant],"freezing time, rimonabant-administered krill oil group vs solvent-administered control group","fear memory in mice; Test Example 11, FIG. 12",No significant difference
same,effect on DSE,[1]; brain slice in artificial cerebrospinal fluid containing rimonabant (5 (unit uncertain)),suppressed DSE almost completely
